Key:
Hist. = assay: Antispasmodic activity, Hist.
BaCl2 = assay: Antispasmodic activity, BaCl2
Ac.chol. = assay: Antispasmodic activity, Ac.chol.
guinea pig atria's = assay: Protective activity against anoxia (guinea pig atria); design: key: scale: + = 10 to 20% increase in survival time; conditions: increase in survival time
Source text: (5) guinea pig atria's;
+ = increase in survival time of 10 to 20%

DL50 mouse p.o. = conditions: in vivo, po, limits of reliability (p : 0.95) in brackets
Source text: (1) the limits of reliability (p : 0.95) are given in brackets.

[1] = test system: spontaneously hypertensive rat; assay: Antihypertensive activity (spontaneously hypertensive rat); type: in vivo; conditions: 15 mg/kg per os
Description: (3) spontaneously hypertensive rat; 15 mg/kg per os;
± reduction of systolic pressure up to 10 mm of Hg
+ reduction of systolic pressure of 10 to 20 mm Hg
++ reduction of systolic pressure of at least 20 mm of Hg

[2] = test system: peripheral vasodilatatory activity; assay: Vasodilatory effect after intraarterial injection in dog; type: in vivo
Description: (1) intraarterial injection in dog (5 animals) 10, 20 and 30 μg/kg.
(2) maximum vasodilatory effect in mm of Hg.
(3) and (4) expressed in seconds.

Molecule	Antispasmodic activity CE 100, Hist. (Hist.)	Antispasmodic activity CE 100, BaCl2 (BaCl2)	Antispasmodic activity CE 100, Ac.chol. (Ac.chol.)	Protective activity against anoxia (guinea pig atria's)	LD50 (DL50 mouse p.o.)	other results
CC(C(O)c1ccc(SC2CCCCC2)cc1)N1CCCCC1 (stereo not shown) [No 33]	> 1000 μ g γ 60 ml	> 1000 μ g γ 60 ml	> 1000 μ g γ 60 ml	–	–	–
CCCCNC(C)C(O)c1ccc(SCC(C)C)cc1 (stereo not shown) [No 25]	200 μ g γ 60 ml	200 μ g γ 60 ml	100 μ g γ 60 ml	0	1350 mg/kg	–
CCCCCCCCNC(CC)C(O)c1ccc(SCC)cc1 (stereo not shown) [No 20]	200 μ g γ 60 ml	100 μ g γ 60 ml	100 μ g γ 60 ml	0	~2450 mg/kg	Anti-hypertensive activity [1]: 0
CC(C)NC(C)C(O)c1ccc(SC(C)C)cc1 (stereo not shown) [No 3]	–	–	–	–	630 mg/kg	–
CCC(C)NC(CC)C(O)c1ccc(SC(C)C)cc1 (stereo not shown) [No 9]	1000 μ g γ 60 ml	500 μ g γ 60 ml	200 μ g γ 60 ml	++ (increase in survival time of more than 25%)	–	–
CCC(C(O)c1ccc(SC2CCCCC2)cc1)N1CCCCC1 (stereo not shown) [No 34]	1000 μ g γ 60 ml	200 μ g γ 60 ml	100 μ g γ 60 ml	–	–	–
CCCCNC(C)C(O)c1ccc(SCC)cc1 (stereo not shown) [No 12]	1000 μ g γ 60 ml	1000 μ g γ 60 ml	500 μ g γ 60 ml	0	312 mg/kg	–
CCCCCCCCNC(C)C(O)c1ccc(SCC)cc1 (stereo not shown) [No 13]	100 μ g γ 60 ml	100 μ g γ 60 ml	200 μ g γ 60 ml	0	1750 mg/kg	Anti-hypertensive activity [1]: ++ (reduction of systolic pressure of at least 20 mm of Hg)
COc1ccc(Cc2nccc3cc(OC)c(OC)cc23)cc1OC [papaverine, reference compound]	–	–	–	–	–	Amplitude (maximum vasodilatory effect) ([2]; 10 μg/kg): 40 mm of Hg; Duration of effect ([2]; 10 μg/kg): 43 s; Amplitude (maximum vasodilatory effect) ([2]; 20 μg/kg): 51 mm of Hg; Duration of effect ([2]; 20 μg/kg): 45 s; Amplitude (maximum vasodilatory effect) ([2]; 30 μg/kg): 54 mm of Hg; Duration of effect ([2]; 30 μg/kg): 47 s
CCC(C)NC(C)C(O)c1ccc(SC2CCCCC2)cc1 (stereo not shown) [No 16]	500 μ g γ 60 ml	200 μ g γ 60 ml	200 μ g γ 60 ml	–	–	–
CCCCCCCCNC(C)C(O)c1ccc(SC2CCCCC2)cc1 (stereo not shown) [No 15]	1000 μ g γ 60 ml	1000 μ g γ 60 ml	500 μ g γ 60 ml	–	~5000 mg/kg	Anti-hypertensive activity [1]: ++ (reduction of systolic pressure of at least 20 mm of Hg)
CC(C)Sc1ccc(C(O)C(C)NC(C)(C)C)cc1 (stereo not shown) [No 5]	> 1000 μ g γ 60 ml	1000 μ g γ 60 ml	1000 μ g γ 60 ml	0	–	–
CCC(C)NC(C)C(O)c1ccc(SC(C)C)cc1 (stereo not shown) [No 4]	1000 μ g γ 60 ml	500 μ g γ 60 ml	1000 μ g γ 60 ml	0	520 mg/kg	–
CC(C)CSc1ccc(C(O)C(C)NC(C)(C)C)cc1 (stereo not shown) [No 24]	200 μ g γ 60 ml	500 μ g γ 60 ml	1000 μ g γ 60 ml	–	–	–
CC(NC(C)(C)C)C(O)c1ccc(SC2CCCCC2)cc1 (stereo not shown) [No 21]	500 μ g γ 60 ml	500 μ g γ 60 ml	100 μ g γ 60 ml	–	–	Anti-hypertensive activity [1]: 0
CCC(NC(C)C)C(O)c1ccc(SC2CCCCC2)cc1 (stereo not shown) [No 27]	500 μ g γ 60 ml	200 μ g γ 60 ml	200 μ g γ 60 ml	–	–	–
CC(Cc1ccccc1)NC(C)C(O)c1ccc(SC(C)C)cc1 (stereo not shown) [No 35]	200 μ g γ 60 ml	500 μ g γ 60 ml	500 μ g γ 60 ml	–	2100 mg/kg	Anti-hypertensive activity [1]: ± (reduction of systolic pressure up to 10 mm of Hg)
CCCCNC(CC)C(O)c1ccc(SCC)cc1 (stereo not shown) [No 19]	1000 μ g γ 60 ml	500 μ g γ 60 ml	1000 μ g γ 60 ml	0	640 mg/kg	–
CCCCCCCCNC(C)C(O)c1ccc(SC2CCCC2)cc1 (stereo not shown) [No 32]	–	–	–	–	> 4000 mg/kg	Anti-hypertensive activity [1]: ++ (reduction of systolic pressure of at least 20 mm of Hg)
1-(4-methylthiophenyl)-2-n-octylaminopropanol [No 11]	1000 μ g γ 60 ml	> 1000 μ g γ 60 ml	1000 μ g γ 60 ml	0	–	–
CC(C)CSc1ccc(C(O)C(C)NC(C)C)cc1 (stereo not shown) [No 22]	500 μ g γ 60 ml	500 μ g γ 60 ml	1000 μ g γ 60 ml	0	1280 mg/kg	–
CCCCCCNC(C)C(O)c1ccc(SC(C)C)cc1 (stereo not shown) [No 28]	–	–	–	–	1450 mg/kg	–
CCCCNC(CC)C(O)c1ccc(SC(C)C)cc1 (stereo not shown) [No 6]	500 μ g γ 60 ml	1000 μ g γ 60 ml	100 μ g γ 60 ml	0	> 1000 mg/kg	–
CCCCCCCCNC(C)C(O)c1ccc(SCC(C)C)cc1 (stereo not shown) [No 26]	200 μ g γ 60 ml	200 μ g γ 60 ml	200 μ g γ 60 ml	0	> 4000 mg/kg	–
CCC(C)NC(C)C(O)c1ccc(SCC(C)C)cc1 (stereo not shown) [No 23]	200 μ g γ 60 ml	500 μ g γ 60 ml	200 μ g γ 60 ml	0	–	–
CCCCNC(C)C(O)c1ccc(SC2CCCCC2)cc1 (stereo not shown) [No 14]	500 μ g γ 60 ml	200 μ g γ 60 ml	100 μ g γ 60 ml	–	–	–
CCCCCCCNC(C)C(O)c1ccc(SC(C)C)cc1 (stereo not shown) [No 29]	–	–	–	–	~2400 mg/kg	–
CCC(NC(C)C)C(O)c1ccc(SC(C)C)cc1 (stereo not shown) [No 7]	1000 μ g γ 60 ml	1000 μ g γ 60 ml	200 μ g γ 60 ml	0	–	–
CCCCNC(C)C(O)c1ccc(SC(C)C)cc1 (stereo not shown) [No 1]	500 μ g γ 60 ml	500 μ g γ 60 ml	1000 μ g γ 60 ml	0	680 mg/kg	–

Source: patent US4228187A, “Alkyl and cycloalkylthiophenylalkylaminoalkanols, their salts and the preparation thereof” (priority 1973, dated 1980)
